Read-outs that look alike come from different tables or passages of the source.

On data set [1], the source says: FIG. 6B illustrates this method. […] The standard may be prepared by mixing specific amounts of Type C and Form II and determining the X-ray diffraction pattern. This method is also illustrated in FIGS. 6A and B which are used to calculate the ratio between the heights of the peaks in the known mixtures. […] A round aluminum sample holder with zero background was used. […] Running in spin/oscillate mode. All peak positions are reported with an error of ±0.2 degrees two theta.

For data set [2] the following is noted: disclosed in WO 05/058835; cited from earlier work.
A further data set deals with α1-adrenergic receptor. The following applies: cited from earlier work.
In data set [3] the target is serotonin 5-HT2A receptor (Homo sapiens, UniProt P28223). The following applies: cited from earlier work.
Data set [4] relates to cholinergic muscarinic receptors. The settings on record: cited from earlier work.
Data set [5] addresses T1, serotonin 5-HT2C receptor (Homo sapiens, UniProt P28335).
T1 sequence (P28335 33-458): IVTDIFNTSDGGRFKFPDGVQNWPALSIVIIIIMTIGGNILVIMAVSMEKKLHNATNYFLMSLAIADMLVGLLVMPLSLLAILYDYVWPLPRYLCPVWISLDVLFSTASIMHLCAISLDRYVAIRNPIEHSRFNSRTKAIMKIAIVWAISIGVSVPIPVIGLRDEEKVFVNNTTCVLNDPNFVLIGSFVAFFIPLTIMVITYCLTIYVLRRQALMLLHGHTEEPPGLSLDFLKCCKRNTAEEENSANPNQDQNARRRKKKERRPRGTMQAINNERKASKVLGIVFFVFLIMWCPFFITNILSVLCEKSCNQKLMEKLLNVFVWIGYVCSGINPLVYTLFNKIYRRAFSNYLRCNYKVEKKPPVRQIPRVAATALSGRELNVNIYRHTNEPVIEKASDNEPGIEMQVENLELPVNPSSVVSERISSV
The settings on record: cited from earlier work.

Data set [6] addresses T2, serotonin 5-HT1A receptor (Homo sapiens, UniProt P08908).
T2 sequence (P08908 1-422): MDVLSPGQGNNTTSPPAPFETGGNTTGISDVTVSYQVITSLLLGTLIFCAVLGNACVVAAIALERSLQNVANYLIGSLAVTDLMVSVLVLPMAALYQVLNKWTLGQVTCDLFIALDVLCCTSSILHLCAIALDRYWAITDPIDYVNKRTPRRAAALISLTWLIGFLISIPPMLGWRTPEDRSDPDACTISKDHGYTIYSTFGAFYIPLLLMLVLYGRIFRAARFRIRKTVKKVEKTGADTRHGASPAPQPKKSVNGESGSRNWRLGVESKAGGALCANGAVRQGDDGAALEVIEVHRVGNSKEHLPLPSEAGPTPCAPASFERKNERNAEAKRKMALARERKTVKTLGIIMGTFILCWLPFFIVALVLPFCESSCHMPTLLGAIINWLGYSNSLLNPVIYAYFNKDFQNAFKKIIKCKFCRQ
The settings on record: cited from earlier work.

The target of another data set is serotonin reuptake site (Homo sapiens, UniProt P31645). The settings on record: cited from earlier work.
Another data set concerns the target histamine H1 receptor (Homo sapiens, UniProt P35367). The settings on record: cited from earlier work.
For data set [7] the following is noted: prepared by recrystallization from ethanol or heating hydrate at 80° C; according to WO 03/26659; cited from earlier work.
Setting [8] is: Example 5 (comparative): centrifugal ball mill, 90 minutes at 580 rpm.

serotonin reuptake site, sequence (P31645 whole entry): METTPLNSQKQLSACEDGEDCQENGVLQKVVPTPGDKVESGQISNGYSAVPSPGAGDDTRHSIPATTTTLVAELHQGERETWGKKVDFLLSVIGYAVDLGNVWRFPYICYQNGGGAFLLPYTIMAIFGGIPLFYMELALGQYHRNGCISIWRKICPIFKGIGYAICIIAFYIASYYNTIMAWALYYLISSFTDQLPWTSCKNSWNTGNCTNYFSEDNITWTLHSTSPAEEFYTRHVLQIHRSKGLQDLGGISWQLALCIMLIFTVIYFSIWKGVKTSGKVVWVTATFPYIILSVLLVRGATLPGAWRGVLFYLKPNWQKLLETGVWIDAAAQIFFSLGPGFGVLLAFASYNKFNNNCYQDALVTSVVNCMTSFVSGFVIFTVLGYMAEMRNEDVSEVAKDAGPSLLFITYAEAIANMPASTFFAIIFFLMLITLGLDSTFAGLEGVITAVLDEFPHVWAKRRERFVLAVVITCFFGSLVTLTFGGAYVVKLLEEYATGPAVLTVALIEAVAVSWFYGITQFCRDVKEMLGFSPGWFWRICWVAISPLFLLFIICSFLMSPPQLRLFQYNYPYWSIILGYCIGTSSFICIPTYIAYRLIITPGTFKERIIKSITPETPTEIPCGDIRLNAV
histamine H1 receptor, sequence (P35367 whole entry): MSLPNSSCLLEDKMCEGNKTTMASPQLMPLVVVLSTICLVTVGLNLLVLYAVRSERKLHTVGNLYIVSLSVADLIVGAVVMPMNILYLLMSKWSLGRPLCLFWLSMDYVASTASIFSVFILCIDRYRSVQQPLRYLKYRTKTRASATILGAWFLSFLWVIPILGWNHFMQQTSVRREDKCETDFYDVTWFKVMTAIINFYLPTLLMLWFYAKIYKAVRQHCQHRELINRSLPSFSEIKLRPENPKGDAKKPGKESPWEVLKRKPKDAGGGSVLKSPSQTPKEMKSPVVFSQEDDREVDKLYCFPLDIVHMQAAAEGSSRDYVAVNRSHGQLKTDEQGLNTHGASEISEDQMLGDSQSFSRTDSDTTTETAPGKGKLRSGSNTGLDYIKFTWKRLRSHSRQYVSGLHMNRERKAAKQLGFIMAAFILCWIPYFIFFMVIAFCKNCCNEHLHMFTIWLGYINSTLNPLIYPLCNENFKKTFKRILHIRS
serotonin 5-HT2A receptor, sequence (P28223 whole entry): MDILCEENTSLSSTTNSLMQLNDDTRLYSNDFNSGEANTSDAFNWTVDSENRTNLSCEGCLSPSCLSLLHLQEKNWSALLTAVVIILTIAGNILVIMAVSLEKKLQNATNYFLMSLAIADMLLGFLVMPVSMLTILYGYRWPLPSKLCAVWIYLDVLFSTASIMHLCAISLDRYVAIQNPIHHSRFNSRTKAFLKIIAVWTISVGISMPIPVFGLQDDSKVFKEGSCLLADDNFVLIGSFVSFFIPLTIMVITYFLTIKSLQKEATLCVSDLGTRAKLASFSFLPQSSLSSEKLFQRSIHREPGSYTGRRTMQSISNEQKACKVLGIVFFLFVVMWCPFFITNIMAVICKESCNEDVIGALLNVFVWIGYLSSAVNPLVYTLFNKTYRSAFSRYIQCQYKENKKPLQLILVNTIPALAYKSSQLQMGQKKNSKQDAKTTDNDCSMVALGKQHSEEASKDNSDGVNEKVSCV

As for `O=C1CCc2ccc(OCCCCN3CCN(c4cccc(Cl)c4Cl)CC3)cc2N1` [Aripiprazole Form II, 7-{4-[4-(2,3-dichlorophenyl)-1-piperazinyl]-butoxy}-3,4-dihydro-2(1H)-quinolinone], the “Type C content of milled sample by XRD” value in data set [1] (Example 1A: conical mill, 470 micron screen, 4710 rpm) is recorded as “less than 5%”; in [1] (Example 1B: conical mill, 830 microns screen, 1315 rpm) it was “less than 5 % by weight”; in data set [1] (Example 2: ground with mortar and pestle about 1 min) it was “less than 5%”; in [1] (Example 3A: micronizer, Feeding Air 5.0 bars, Grinding Air 4.0 bars), “did not contain Type_C”; in data set [1] (Example 3B: micronizer, Feeding Air 3.0 bars, Grinding Air 2.0 bars), “did not contain Type_C”; in data set [1] (Example 3C: micronizer, 4 kg, Feeding Air 6.0 bars, Grinding Air 5.0 bars) it was “did not contain Type_C”. Moreover, the “transformation to Type C by XRD” value in [1] (Example 4A and 4B: frozen at −10° C. to −20° C. 24 hours, conical mill 470 microns/4710 or 830 microns/1315 rpm) is reported as “not transformed to Type C”. Also, in [1] (setting [8]), the “Type C content after milling by XRD” value is reported as “stark increase in the content of Type C”. Moreover, the “crystallinity after milling by XRD” value in data set [1] (setting [8]) was “crystallinity of the sample decreased”. Moreover, in data set [2], the “polymorphic transformation on heating” value is “transformation to Type C”.

With `O=C1CCc2ccc(OCCCCN3CCN(c4cccc(Cl)c4Cl)CC3)cc2N1` [Aripiprazole, 7-{4-[4-(2,3-dichlorophenyl)-1-piperazinyl]-butoxy}-3,4-dihydro-2(1H)-quinolinone], the “affinity for α1-adrenergic receptor” value with α1-adrenergic receptor is reported as “moderate affinity”. Moreover, the “affinity for serotonin 5-HT2A receptor” value in data set [3] is recorded as “high affinity”. In addition, the “affinity for cholinergic muscarinic receptors” value in [4] is “no appreciable affinity”. Besides, the “affinity for serotonin 5-HT2C receptor” value in data set [5] is “moderate affinity”. Further, in [6], the “affinity for serotonin 5-HT1A receptor” value is listed as “high affinity”. On serotonin reuptake site, the “affinity for the serotonin reuptake site” value is “moderate affinity”. Besides, the “affinity for histamine H1 receptor” value on histamine H1 receptor is recorded as “moderate affinity”.

For the compound `O=C1CCc2ccc(OCCCCN3CCN(c4cccc(Cl)c4Cl)CC3)cc2N1` [anhydride aripiprazole], the hygroscopicity result in data set [7] is “significantly hygroscopic”.

The values above are taken from patent publication US20070272777A1 (priority 2005, published 2007).
